Assay type in all cases: cell-based
Test [1] relates to human mammary cancer cell line. As to the kind of experiment: Selective in vitro inhibition of breast cancer cell growth (panel of cell lines, Test Example 6). The note with it: Table 6 cell lines. As for the experimental part: (§1) 100 μl (containing 2,000 cells) of a cell suspension of various human breast cancer cell lines shown in [Table 6] was seeded in each well of the 96-well microtiter plates. The cells were incubated at 37° C. in a 5% carbon dioxide gas incubator. Next day, 100 μl of a 2 fold serial dilution of a compound solution was added to each well. The cultures were incubated for 3 days. The solution containing the compound was removed and the cells were washed with water. To the cells was added a 0.4% (V/W) dye SRB (dissolved in 1% acetic acid) solution to fix and stain the cell protein. The dye solution was removed and the fixed and stained cell protein was washed. The protein-bound dye was extracted with 200 μl of 10 mM Tris buffer. The optical density of the extracted dye was determined at the wavelength of 540 nm to estimate the quantity of the cells in terms of the protein quantity. Designating the protein quantity in the control to which no compound solution was added as 100%, the proportion of the residual protein quantity in each treated group was calculated, and IC50, which was the concentration of the compound required to inhibit the residual protein quantity to 50% the quantity of the control, was calculated.

Test [2] concerns MDA-MB-453. As to the kind of experiment: In vitro inhibition of cell proliferation (1). The note with it: Homo sapiens, 72 h; Breast cancer MDA-MB-453; 3 days; SRB. On the procedure: 100 μl (containing 2,000 cells) of a cell suspension of human breast cancer cell line MDA-MB-453 was seeded in each well of the 96-well microtiter plates. The cultures were incubated at 37° C. in a 5% carbon dioxide gas incubator. On the next day, 100 μl of the 2-fold serial dilution of each compound solution was added to each well and the mixtures were cultured for 3 days. The solution containing the compound was removed and the cells were washed with water. To the cells was added a 0.4% (W/V) dye SRB (dissolved in 1% acetic acid) solution to fix and stain the cell protein (Skehan P. et al., Journal of the National Cancer Institute Vol.82, pp.1107-1112, 1990). The dye solution was removed and the fixed and stained cell protein was washed. The protein-bound dye was extracted with 200 μl of 10 mM Tris buffer. The optical density of the extracted dye was determined at the wavelength of 540 nm to estimate the quantity of the cells in terms of the protein quantity. Designating the protein quantity in the control to which no compound solution was added as 100%, the proportion of the residual protein quantity in each treated group was calculated, and IC50, which was concentration of the compound required to inhibit the residual protein quantity to 50% the quantity of the control, was calculated.

The subject of a further test is T-47D. Nature of the test: Selective in vitro inhibition of breast cancer cell growth. The note with it: Homo sapiens, T47D, 72 h; Mammary cancer T-47D; 3 days; SRB; read-out: IC50, inhibition of cell proliferation. On the procedure:
as §1

The test system of a further test is MDA-MB-468. Described as above. The settings on record: Homo sapiens, 72 h; Mammary cancer MDA-MB-468; 3 days; SRB; read-out: IC50, inhibition of cell proliferation. As for the experimental part: as §1
The subject of the next test is BT-474. The test is described as above. The settings on record: Homo sapiens, 72 h; Mammary cancer BT-474; 3 days; SRB; read-out: IC50, inhibition of cell proliferation. On the procedure:
as §1

For a further test, the system named is BT-20. The description is as above. The note with it: Homo sapiens, 72 h; Mammary cancer BT-20; 3 days; SRB; read-out: IC50, inhibition of cell proliferation. As for the experimental part: as §1
A further test deals with MRC5. The test is described as above. The settings on record: Homo sapiens, 72 h; Normal MRC5; 3 days; SRB; read-out: IC50, inhibition of cell proliferation. On the procedure: as §1
The subject of test [3] is MDA-MB-453. The test is described as above. The note with it: Homo sapiens, 72 h; Mammary cancer MDA-MB-453; 3 days; SRB; read-out: IC50, inhibition of cell proliferation. On the procedure: as §1
Another test deals with WiDr. The test is described as above. The settings on record: Homo sapiens, 72 h; Large intestinal cancer WiDr; 3 days; SRB; read-out: IC50, inhibition of cell proliferation. As for the experimental part:
as §1

The next test deals with ASPC-1. The test is described as above. The note with it: Homo sapiens, ASPC1, 72 h; Pancreatic cancer ASPC-1; 3 days; SRB; read-out: IC50, inhibition of cell proliferation. On the procedure:
as §1

The test system of a further test is SKBR3. The test is described as above. The note with it: Homo sapiens, SK-BR-3, 72 h; Mammary cancer SKBR3; 3 days; SRB; read-out: IC50, inhibition of cell proliferation. On the procedure: as §1
The next test deals with HSC-1. Described as above. The settings on record: Homo sapiens, 72 h; Epidermal cancer HSC-1; 3 days; SRB; read-out: IC50, inhibition of cell proliferation. On the procedure:
as §1

A further test has as its target HER2 (Homo sapiens, UniProt P04626). As to the kind of experiment: Inhibition of phosphorylation of receptor tyrosine in human breast cancer cells (1), T-47D, heregulin-stimulated. On the procedure:
Human breast cancer cell line T-47D was cultured for 7 days in the medium containing 0.1% bovine fetus albumin instead of serum to deprive the medium of estrogen. On the 7th day, 1,000 μl of the cell suspension (250,000 cells) was seeded in each well of the 24-well plates. The culture were incubated at 37° C. in a 5% carbon dioxide gas incubator. On the next day, 100 μl of the 10-fold serial dilution of each compound solution was added to each well and, 2 hours later, 0.5 μg/ml of heregulin was added to it. After 5 minutes the extract solution was added to it to terminate the reaction, and the protein fraction was extracted. To the extract was added an antibody against the human receptor type oncogene HER2 to precipitate the human receptor type oncogene HER2 protein by the reaction of immunoprecipitation. The precipitate was fractionated by the protein electrophoresis. The protein in the electrophoretic gel was transferred to a nylon filter. The filter was allowed to react with the phosphorylated tyrosine-specific antibody. The reaction product was fluorescence-labeled to expose a photofilm. The intensity of the exposure on the photofilm was quantitated by an image-analyzing apparatus. The proportion of the phosphorylation of HER2 tyrosine in the cells added with a compound solution of each concentration was calculated designating the phosphorylation of HER2 tyrosine in the heregulin-added cells as 100%.

pIC50: −log10 of the molar value.

HER2, sequence (P04626 23-1255): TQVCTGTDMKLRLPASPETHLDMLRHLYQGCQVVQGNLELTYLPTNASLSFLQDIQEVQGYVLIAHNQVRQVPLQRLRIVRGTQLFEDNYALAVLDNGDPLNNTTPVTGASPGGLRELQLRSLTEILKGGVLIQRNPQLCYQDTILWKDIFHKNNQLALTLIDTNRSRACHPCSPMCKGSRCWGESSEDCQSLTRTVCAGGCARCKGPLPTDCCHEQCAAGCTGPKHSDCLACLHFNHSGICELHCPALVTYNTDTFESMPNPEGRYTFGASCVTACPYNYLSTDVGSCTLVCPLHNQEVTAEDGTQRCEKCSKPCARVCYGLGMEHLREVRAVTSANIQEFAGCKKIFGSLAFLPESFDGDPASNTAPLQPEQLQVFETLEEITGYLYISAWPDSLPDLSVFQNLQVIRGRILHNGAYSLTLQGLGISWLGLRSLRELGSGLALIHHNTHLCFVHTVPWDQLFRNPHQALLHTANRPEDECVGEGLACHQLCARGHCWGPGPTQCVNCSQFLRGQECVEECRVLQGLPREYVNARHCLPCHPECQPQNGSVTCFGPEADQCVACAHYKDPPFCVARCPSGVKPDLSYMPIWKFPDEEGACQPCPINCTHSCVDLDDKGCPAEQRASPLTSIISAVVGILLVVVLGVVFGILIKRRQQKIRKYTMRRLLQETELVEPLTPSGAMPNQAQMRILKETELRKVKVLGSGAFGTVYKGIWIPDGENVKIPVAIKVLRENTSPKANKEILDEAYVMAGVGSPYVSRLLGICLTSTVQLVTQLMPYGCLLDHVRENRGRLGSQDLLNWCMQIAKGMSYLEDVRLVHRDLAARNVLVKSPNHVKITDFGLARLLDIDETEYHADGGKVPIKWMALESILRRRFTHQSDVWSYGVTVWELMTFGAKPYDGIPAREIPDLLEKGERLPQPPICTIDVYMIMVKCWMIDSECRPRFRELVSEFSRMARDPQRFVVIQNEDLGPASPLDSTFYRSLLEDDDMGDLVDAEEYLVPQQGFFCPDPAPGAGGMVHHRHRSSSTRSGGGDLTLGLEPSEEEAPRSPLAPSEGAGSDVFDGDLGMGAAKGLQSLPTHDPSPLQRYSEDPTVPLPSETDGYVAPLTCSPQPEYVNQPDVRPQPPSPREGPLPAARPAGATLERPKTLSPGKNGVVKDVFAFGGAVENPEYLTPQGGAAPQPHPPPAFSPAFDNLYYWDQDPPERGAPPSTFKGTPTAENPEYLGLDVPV

`C(=C\c1nc(COc2ccc(CCCn3ccnc3)cc2)co1)/c1ccccc1` [Compound 8, 4-[4-[3-(1-imidazolyl)propyl]phenoxymethyl]-2-[(E)-2-phenylethenyl]oxazole]: the “Selective inhibition of cell growth” value in test [1] was “inhibit specifically the cell growth of human mammary cancer cell line”. Further, the pIC50 was 6.60 in the test on MDA-MB-453 [2]; 6.24 in the test with T-47D; 6.28 in the test on MDA-MB-468; 6.54 in the test with BT-474; 6.28 with BT-20; 4.82 with MRC5. Also, the pIC50 was 6.60 with MDA-MB-453 [3]; 5.68 in the test on WiDr; 5.60 in the test on ASPC-1; 6.00 with SKBR3; 5.68 with HSC-1. Moreover, the activity at 0.4 µM on HER2 (T47D, 0.4 μM, heregulin control = 100%, read-out: Phosphorylation of the tyrosine residue (%)) came out at 62%. Moreover, at HER2 (T47D, 1.6 μM, heregulin control = 100%, read-out: Phosphorylation of the tyrosine residue (%)), the activity at 1.6 µM is 52%. The activity at 6.3 µM at HER2 (T47D, 6.3 μM, heregulin control = 100%, read-out: Phosphorylation of the tyrosine residue (%)) was 33%. The activity at 25 µM at HER2 (T47D, 25 μM, heregulin control = 100%, read-out: Phosphorylation of the tyrosine residue (%)) is 20%. In addition, on HER2 (heregulin), the “Inhibition of receptor tyrosine phosphorylation” value was “inhibit dose-dependently the phosphorylation reaction of the tyrosine residue in the receptor protein”.

(Values after US6211215A, “Heterocyclic compounds, their production and use” (Takeda Chemical Industries, Ltd., priority 1996, dated 2001).)
